In US12150995B2, “IRAK degraders and uses thereof” (Kymera Therapeutics, Inc., priority 2020, dated 2024) one finds DC50 data, which are given here for 34 compounds.

Molecules are shown by their SMILES. Bounds are passed on as bounds.

The test addresses T1, IRAK4 (Homo sapiens, UniProt Q9NWZ3).
T1 construct: endogenous in cells; host or cells: OCI-LY10
T1 sequence (Q9NWZ3 1-460): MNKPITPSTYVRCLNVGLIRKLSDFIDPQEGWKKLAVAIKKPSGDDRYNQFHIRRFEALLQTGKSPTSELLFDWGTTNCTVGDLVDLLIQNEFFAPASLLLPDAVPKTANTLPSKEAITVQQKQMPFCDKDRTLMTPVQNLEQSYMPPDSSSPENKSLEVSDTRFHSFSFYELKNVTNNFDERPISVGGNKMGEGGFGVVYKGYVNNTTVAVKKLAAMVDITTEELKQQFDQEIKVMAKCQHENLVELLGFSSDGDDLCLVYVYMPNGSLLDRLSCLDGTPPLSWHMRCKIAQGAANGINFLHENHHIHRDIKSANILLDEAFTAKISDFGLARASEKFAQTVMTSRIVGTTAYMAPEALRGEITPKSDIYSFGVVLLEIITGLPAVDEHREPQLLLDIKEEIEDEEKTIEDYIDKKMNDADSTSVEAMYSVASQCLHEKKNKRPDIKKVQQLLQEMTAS
Kind of test: IRAK4 MSD Degradation in OCI-LY10. It is filed as cell-based. The note with it: OCI-LY10 cells, Meso Scale Discovery, incubated 4 to 24 hours. Summed up:
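OCI-LY10 cells (300,000/well) exposed to an 8-point 1:3 series from a top concentration of 1 to 10 μM for 4 to 24 h at 37 °C. IRAK4 remaining in RIPA lysates quantified by MSD sandwich immunoassay; DC50 from a three-parameter logistic fit.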

On to `COc1cc2nn([C@H]3CC[C@H](CN4CCN(c5cccc6c(N7CCC(=O)NC7=O)cncc56)CC4)CC3)cc2cc1NC(=O)c1cncc(C#N)c1` [I-259], for which the half-maximal degradation concentration (DC50) (as a rule, the midpoint of the concentration-degradation curve) was in the range of 10 to 50 nM.

For the compound `COc1cc2nc([C@H]3CC[C@H](CN(C)CCNc4cccc5c4C(=O)N(C4CCC(=O)NC4=O)C5=O)CC3)sc2cc1NC(=O)c1cncc(Cl)c1` (stereo partly shown) [I-484], the DC50 was over 200 nM.

For the compound `COc1cc2nn([C@H]3C[C@H](CN4CCC(c5c(C)ccc6c5n(C)c(=O)n6C5CCC(=O)NC5=O)CC4)C3)cc2cc1NC(=O)c1cccc(C(F)(F)F)n1` (stereo partly shown) [I-137], the 50% degradation concentration (DC50) is under 10 nM.

The compound `COc1cc2nn([C@H]3CC[C@H](CN(C)C4CCN(c5cccc6c5n(C)c(=O)n6C5CCC(=O)NC5=O)CC4)CC3)cc2cc1NC(=O)c1cncc(F)c1` (stereo partly shown) [I-81] yielded a DC50 of under 10 nM.

`CN(CCCNc1cccc2c1C(=O)N(C1CCC(=O)NC1=O)C2=O)C[C@H]1CC[C@H](c2nc3cc(C(C)(C)O)c(NC(=O)c4cncc(Cl)c4)cc3s2)CC1` (stereo partly shown) [I-476] gave a DC50 of over 200 nM.

In the case of `CC(C)Nc1cc(-c2ccc3cc(C#N)cnn23)ncc1C(=O)N[C@H]1CC[C@H](CN2CCC(c3cccc4c(N5CCC(=O)NC5=O)cncc34)CC2)CC1` [I-184], the DC50 was under 10 nM.

Turning to `COc1cc2nn([C@H]3CC[C@H](CN4CCC(c5cccc6c5n(C)c(=O)n6C5CCC(=O)NC5=O)CC4)CC3)cc2cc1NC(=O)c1cnc(C)c(Cl)c1` (stereo partly shown) [I-134], the DC50 was over 200 nM.

`COc1cc2nn([C@H]3CC[C@H](CN4CCN(c5c(OC)ccc6c(N7CCC(=O)NC7=O)cncc56)CC4)CC3)cc2cc1NC(=O)c1cccc(C(F)(F)F)n1` [I-332] came in with a DC50 of 10 to 50 nM.

`COc1cc2nn([C@H]3CC[C@H](CN4CC5(CN(Cc6cccc7c6n(C)c(=O)n7C6CCC(=O)NC6=O)C5)C4)CC3)cc2cc1NC(=O)c1cncc(C#N)c1` (stereo partly shown) [I-244] returned a 50% degradation concentration (DC50) of 100 to 200 nM.

In turn, `COc1cc2nn([C@H]3CC[C@H](CN4CCC(c5cc(Cl)cc6c5n(C)c(=O)n6C5CCC(=O)NC5=O)CC4)CC3)cc2cc1NC(=O)c1cccc(C(F)(F)F)n1` (stereo partly shown) [I-36] yielded a half-maximal degradation concentration (DC50) of under 10 nM.

On to `COc1cc2nn([C@H]3CC[C@H](CN4CCC(c5cccc6c5n(C)c(=O)n6C5CCC(=O)NC5=O)CC4)CC3)cc2cc1NC(=O)c1ccc(C(F)(F)F)nc1` (stereo partly shown) [I-194], for which the DC50 was over 200 nM.

In the case of `Cc1cccc(C(=O)Nc2cc3sc([C@H]4CC[C@H](C(=O)N5CCN(CCCNc6cccc7c6C(=O)N(C6CCC(=O)NC6=O)C7=O)CC5)CC4)nc3cc2C(C)(C)O)n1` (stereo partly shown) [I-465], the DC50 is under 10 nM.

`COc1cncc(C(=O)Nc2cc3sc([C@H]4CC[C@H](CN(C)CCCCNc5cccc6c5C(=O)N(C5CCC(=O)NC5=O)C6=O)CC4)nc3cc2OC)c1` (stereo partly shown) [I-449] yielded a DC50 of over 200 nM.

`Cc1cccc(C(=O)Nc2cc3sc([C@H]4CC[C@H](CN(C)CCCCNc5cccc6c5C(=O)N(C5CCC(=O)NC5=O)C6=O)CC4)nc3cc2C(C)(C)O)n1` (stereo partly shown) [I-444] registered a DC50 of 10 to 50 nM.

As for `COc1cc2nc([C@H]3CC[C@H](CN4CC5(CC(CCNc6cccc7c6C(=O)N(C6CCC(=O)NC6=O)C7=O)C5)C4)CC3)cn2cc1NC(=O)c1cccc(C(F)(F)F)n1` (stereo partly shown) [I-10], the DC50 was 50 to 100 nM.

Regarding `COc1cc2nn([C@H]3CC[C@@H](CN4CCN(CC#Cc5cccc6c5n(C)c(=O)n6C5CCC(=O)NC5=O)CC4)CC3)cc2cc1NC(=O)c1cccc(C(F)(F)F)n1` (stereo partly shown) [I-327], the DC50 was under 10 nM.

In the case of `Cn1c(=O)n(C2CCC(=O)NC2=O)c2ccc(F)c(C3CCN(C[C@H]4C[C@H](n5cc6cc(NC(=O)c7cccc(C(F)(F)F)n7)c(Cl)cc6n5)C4)CC3)c21` (stereo partly shown) [I-142], the DC50 is 10 to 50 nM.

The compound `COc1cc(NC(=O)c2cccc(C(F)(F)F)n2)cc2cn([C@H]3CC[C@H](CN4CCC(c5cccc6c(N7CCC(=O)NC7=O)cncc56)CC4)CC3)nc12` [I-221] returned a DC50 of under 10 nM.

Take `CC(C)Nc1cc(-n2ccc3cc(C#N)cnc32)ncc1C(=O)N1CCC(CN(C)C2CCN(c3cccc4c3n(C)c(=O)n4C3CCC(=O)NC3=O)CC2)CC1` (stereo not shown) [I-115]: the half-maximal degradation concentration (DC50) is over 200 nM.

With `COc1cc2nn([C@H]3CC[C@H](CN4CC=C(c5ccc6c(c5)n(C)c(=O)n6C5CCC(=O)NC5=O)C4)CC3)cc2cc1NC(=O)c1cccc(C(F)(F)F)n1` (stereo partly shown) [I-366], the DC50 was under 10 nM.

In turn, `COc1cc2nn([C@H]3CC[C@H](CN4CCC5(CC4)CC(CCNc4cccc6c4C(=O)N(C4CCC(=O)NC4=O)C6=O)C5)CC3)cc2cc1NC(=O)c1cnn2ccc(C(F)(F)F)nc12` (stereo partly shown) [I-15] showed a 50% degradation concentration (DC50) of over 200 nM.

`Cn1c(=O)n(C2CCC(=O)NC2=O)c2cccc(C3CCN(C[C@H]4CC[C@H](n5cc6cc(NC(=O)c7cnccn7)c(F)cc6n5)CC4)CC3)c21` (stereo partly shown) [I-49]: the half-maximal degradation concentration (DC50) was over 200 nM.

In turn, `COc1cc2nn([C@H]3CC[C@H](CN4CCC5(CC4)CC(CNc4cccc6c4C(=O)N(C4CCC(=O)NC4=O)C6=O)C5)CC3)cc2cc1NC(=O)c1cccc(C(C)(F)F)n1` (stereo partly shown) [I-4] registered a DC50 of 50 to 100 nM.

For the compound `COc1cc2nn([C@H]3C[C@H](CN4CCC(c5cccc6c(N7CCC(=O)NC7=O)cncc56)CC4)C3)cc2cc1NC(=O)c1cccc(C(F)(F)F)n1` [I-91], the DC50 lay within 10 to 50 nM.

With `O=C1CCN(c2cncc3c(C4CCN(C[C@H]5CC[C@H](n6cc7cc(NC(=O)c8cccc(C(F)(F)F)n8)ccc7n6)CC5)CC4)cccc23)C(=O)N1` [I-68], the DC50 lay in the range of 10 to 50 nM.

The compound `CC(C)(O)c1cc2nc([C@H]3CC[C@H](CN4CCO[C@@H](CCCNc5cccc6c5C(=O)N(C5CCC(=O)NC5=O)C6=O)C4)CC3)sc2cc1NC(=O)c1cccc(C#N)n1` (stereo partly shown) [I-438] yielded a DC50 of 10 to 50 nM.

For the compound `Cn1c(=O)n(C2CCC(=O)NC2=O)c2cccc(C3CCN(C[C@H]4CC[C@H](n5cc6cc(NC(=O)c7cccc(C(F)(F)F)n7)ccc6n5)CC4)CC3)c21` (stereo partly shown) [I-57], the 50% degradation concentration (DC50) is under 10 nM.

In the case of `COc1cc2nn([C@H]3CC[C@H](CN4CCC(c5ccc6c(N7CCC(=O)NC7=O)cncc6c5)CC4)CC3)cc2cc1NC(=O)c1cccc(C(F)(F)F)n1` [I-322], the DC50 is under 10 nM.

Take `Cn1c(=O)n(C2CCC(=O)NC2=O)c2ccc(Cl)c(C3CCN(C[C@H]4C[C@H](n5cc6cc(NC(=O)c7cccc(C(F)(F)F)n7)ncc6n5)C4)CC3)c21` (stereo partly shown) [I-149]: the DC50 was in the range of 100 to 200 nM.

As to `Cc1ccc2c(c1C1CCN(C[C@H]3CC[C@H](n4cc5cc(NC(=O)c6cccc(C(F)(F)F)n6)ncc5n4)CC3)CC1)n(C)c(=O)n2C1CCC(=O)NC1=O` (stereo partly shown) [I-102], the DC50 is under 10 nM.

For the compound `Cn1c(=O)n(C2CCC(=O)NC2=O)c2cccc(C3CCN(C(=O)[C@H]4CC[C@H](n5cc6cc(NC(=O)c7cccc(C(F)(F)F)n7)ccc6n5)CC4)CC3)c21` (stereo partly shown) [I-94, N-[2-[4-[4-[1-(2,6-dioxo-3-piperidyl)-3-methyl-2-oxo-benzimidazol-4-yl]piperidine-1-carbonyl]cyclohexyl]indazol-5-yl]-6-(trifluoromethyl)pyridine-2-carboxamide], the half-maximal degradation concentration (DC50) is over 200 nM.

In turn, `Cc1cc2nn([C@H]3CC[C@H](CN4C5CC4CN(c4cccc6c4n(C)c(=O)n6C4CCC(=O)NC4=O)C5)CC3)cc2cc1NC(=O)c1cccc(C(F)(F)F)n1` (stereo partly shown) [I-396] registered a DC50 of 10 to 50 nM.

As for `O=C1CCC(N2C(=O)c3cccc(NCCC4CC5(C4)CN(C[C@H]4CC[C@H](c6nc7cc(C(=O)O)c(NC(=O)c8cccc(C(F)(F)F)n8)cc7s6)CC4)C5)c3C2=O)C(=O)N1` (stereo partly shown) [I-485], the 50% degradation concentration (DC50) is 10 to 50 nM.

Regarding `Cn1c(=O)n(C2CCC(=O)NC2=O)c2cccc(C3CCN(C[C@H]4CC[C@H](n5cc6cc(NC(=O)c7ncc(Cl)s7)ccc6n5)CC4)CC3)c21` (stereo partly shown) [I-247], the DC50 is over 200 nM.
